Source: PubChem BioAssay AID248 (DTP/NCI, 2004)
“And” between values parts separate entries of the source, which are not always exact repeats. Equal entries are not always repeated. Toxic doses and inconclusive results are not listed. Cut-off read from the data, not from the text of the source: active = T/C of 150% or more; inactive = T/C below 125%. Peptide text beside a SMILES is read from it. * marks the point of attachment. Cbz = O=C(OCc1ccccc1)*

System: L1210 leukemia ip in BDF1 mice, survival T/C
Experiment: NCI In Vivo Anticancer Drug Screen. Data for tumor model L1210 Leukemia (intraperitoneal) in B6D2F1 (BDF1) mice
Conditions: endpoint: mean survival time, higher = longer survival
How it was run: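 Each compound was tested against a transplantable tumor grown in mice. The endpoint was survival, with treated animals benchmarked against vehicle controls as a simple ratio.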

[1] = dose: 50.0 mg/kg/injection, schedule: Q01DX009 (ip), vehicle: Klucel (hydroxypropylcellulose) (HPC)
[2] = dose: 100.0 mg/kg/injection, schedule: Q01DX001 (ip), vehicle: saline
[3] = dose: 200.0 mg/kg/injection, schedule: Q01DX001 (ip), vehicle: saline
[4] = dose: 400.0 mg/kg/injection, schedule: Q01DX001 (ip), vehicle: saline
[5] = dose: 100.0 mg/kg/injection, schedule: Q04DX003 (ip), vehicle: Klucel (hydroxypropylcellulose) (HPC)
[6] = dose: 200.0 mg/kg/injection, schedule: Q04DX003 (ip), vehicle: Klucel (hydroxypropylcellulose) (HPC)
[7] = dose: 400.0 mg/kg/injection, schedule: Q04DX003 (ip), vehicle: Klucel (hydroxypropylcellulose) (HPC)
[8] = dose: 100.0 mg/kg/injection, schedule: Q01DX009 (ip), vehicle: Klucel (hydroxypropylcellulose) (HPC)
[9] = dose: 200.0 mg/kg/injection, schedule: Q01DX009 (ip), vehicle: Klucel (hydroxypropylcellulose) (HPC)
[10] = dose: 400.0 mg/kg/injection, schedule: Q01DX009 (ip), vehicle: Klucel (hydroxypropylcellulose) (HPC)

Measured: T/C

CN(C(=O)Cl)c1ccccc1
inactive: dose: 12.5 mg/kg/injection, schedule: Q01DX009 (ip), vehicle: Klucel (hydroxypropylcellulose) (HPC) 95 % of control | dose: 12.5 mg/kg/injection, schedule: Q04DX003 (ip), vehicle: Klucel (hydroxypropylcellulose) (HPC) 95 % of control | dose: 25.0 mg/kg/injection, schedule: Q01DX009 (ip), vehicle: Klucel (hydroxypropylcellulose) (HPC) 95 % of control | dose: 25.0 mg/kg/injection, schedule: Q04DX003 (ip), vehicle: Klucel (hydroxypropylcellulose) (HPC) 97 % of control | [1] 93 % of control | dose: 50.0 mg/kg/injection, schedule: Q04DX003 (ip), vehicle: Klucel (hydroxypropylcellulose) (HPC) 93 % of control

Cc1csc2ccc([N+](=O)[O-])cc12
inactive: [2] 106 % of control | [3] 101 % of control | [4] 101 % of control

CCCCCCCCCCCCCCCCN(C(=S)NC(=O)c1ccccc1)c1ccccc1
inactive: dose: 100.0 mg/kg/injection, schedule: Q01DX001 (ip), vehicle: Klucel (hydroxypropylcellulose) (HPC) 96 % of control | [5] 97 % of control | dose: 200.0 mg/kg/injection, schedule: Q01DX001 (ip), vehicle: Klucel (hydroxypropylcellulose) (HPC) 86 % of control | [6] 89 % of control | dose: 400.0 mg/kg/injection, schedule: Q01DX001 (ip), vehicle: Klucel (hydroxypropylcellulose) (HPC) 92 % of control | [7] 95 % of control

COc1ccc(-c2sc(C)c(-c3ccc(OC)cc3)c2C)cc1
inactive: [2] 96 % of control | [3] 96 % of control | [4] 94 % of control

O=C/C(=C/c1ccccc1)c1ccccc1
inactive: [8] 98 % of control | [5] 107 % of control | [9] 101 % of control | [6] 98 % of control | [10] 95 % of control | [7] 102 % of control

CCCCNC(=O)Nc1ccccc1OCC
inactive: [8] 93 % of control | [5] 94 % of control | [9] 92 % of control | [6] 104 % of control | [10] 97 % of control | [7] 94 % of control

COC(=O)C(CC(C)C)NC(=O)C(Cc1ccccc1)NC(=O)OCc1ccccc1 (stereo not drawn) (Cbz-Phe-Leu-OMe; configuration not given here)
inactive: [2] 98 % of control | [3] 93 % of control | [4] 91 % of control

O=C(NCCCl)NC(C1CC1)C1CC1
inactive: dose: 100.0 mg/kg/injection, schedule: Q01DX009 (ip), vehicle: saline with Tween-80 94 % of control | dose: 200.0 mg/kg/injection, schedule: Q01DX009 (ip), vehicle: saline with Tween-80 94 % of control

O=C(O)C1C2CCCCCCC21 (stereo not given)
inactive: [1] 108 % of control | dose: 100.0 mg/kg/injection, schedule: Q01DX005 (ip), vehicle: Klucel (hydroxypropylcellulose) (HPC) 95 % of control | [8] 108 % of control | dose: 200.0 mg/kg/injection, schedule: Q01DX005 (ip), vehicle: Klucel (hydroxypropylcellulose) (HPC) 103 % of control | [9] 97 % of control

NC(CCC(=O)NC(CSC(c1ccccc1)(c1ccccc1)c1ccccc1)C(=O)NCC(=O)O)C(=O)O (stereo not given)
inactive: dose: 25.0 mg/kg/injection, schedule: Q01DX009 (ip), vehicle: saline 109 % of control | dose: 50.0 mg/kg/injection, schedule: Q01DX009 (ip), vehicle: saline 104 % of control and 114 % of control | dose: 100.0 mg/kg/injection, schedule: Q01DX009 (ip), vehicle: saline 107 % of control and 113 % of control | dose: 200.0 mg/kg/injection, schedule: Q01DX009 (ip), vehicle: saline 124 % of control | dose: 300.0 mg/kg/injection, schedule: Q01DX009 (ip), vehicle: saline 90 % of control

CC(=O)C12CC3CC1C2C3
inactive: dose: 75.0 mg/kg/injection, schedule: Q04DX003 (ip), vehicle: saline 106 % of control | dose: 150.0 mg/kg/injection, schedule: Q04DX003 (ip), vehicle: saline 102 % of control | dose: 300.0 mg/kg/injection, schedule: Q04DX003 (ip), vehicle: saline 101 % of control

CCOC(=O)CCN(C(=O)Nc1ccccc1)C1CCCCC1
inactive: dose: 100.0 mg/kg/injection, schedule: Q01DX Z (ip), vehicle: methylcellulose (MC) 92 % of control | dose: 200.0 mg/kg/injection, schedule: Q01DX Z (ip), vehicle: methylcellulose (MC) 97 % of control
